Measured values as given in article PMC6848382, “Characterization of the Bioactivity and Mechanism of Bactenecin Derivatives Against Food-Pathogens” (Frontiers in Microbiology, 2019).
Converted amounts (≈) assume the structure as drawn. Like-named read-outs stand apart in the source and are kept apart here. Residues, ends and D or L forms follow the SMILES beside them. No end group written: not given here.

Tests used:
[1] = tested on: Staphylococcus aureus CMCC26074; format: cell-based
Description: (§1) The antimicrobial activity of each peptide against food-pathogens was characterized by the minimum inhibitory concentration (MIC) ([Ma et al., 2013]). A logarithmic growth-phase culture of bacteria (1 × 10^6 CFU/mL) was mixed with peptide solutions (final concentration ranging from 0 μM to 256 μM) in 96-well plates. After the 96-well plates were incubated for 24 h at 37°C, optical dispersion (OD) was measured using a microplate reader (Bio-Rad, ıHercules, CA, United States) at 630 nm. […] The broth with bacteria cells was used as the negative control, and un-inoculated broth was used as a positive control. The tests were performed in triplicate using three replicates for each experiment.

[2] = tested on: Escherichia coli ATCC25922; format: cell-based; details: for MIC, CaCl2 / MIC, Control / MIC, KCl / MIC, MgCl2 / MIC, NH4Cl / MIC, NaCl: ATCC25922, 24 h
Description: To evaluate the effect of different physiological conditions on the stability of peptides, we determined the salt stability, thermal stability, and enzymatic stability as described in a previous study ([Dong, 2013]; [Sun et al., 2018]). Escherichia coli ATCC25922 grown in the logarithmic phase (1 × 10^6 CFU/mL) was exposed to each peptide at different salt concentrations (150 mM NaCl, 4.5 mM KCl, 6 μM NH4Cl, 1 mM MgCl2, 8 μM ZnCl2, 2 mM CaCl2, and 4 μM FeCl3). The peptides were treated for 1 h at 100°C to test for thermal stability. The peptides were treated with trypsin, pepsin, papain and protease k at a concentration of 1 mg/mL for 1 h at 37°C to test for enzyme stability. The control group consisted of untreated peptides. The subsequent assay was consistent with the MIC assay.

[3] = tested on: Staphylococcus aureus ATCC25923; format: cell-based
Description: as §1

Bacillus cereus CMCC6303 = format: cell-based
Description: as §1

[4] = tested on: Salmonella pullorum C79-13; format: cell-based; details: 24 h
Description: as §1

[5] = tested on: Escherichia coli ATCC25922; format: cell-based; details: ATCC25922, 24 h
Description: as §1

[6] = tested on: Salmonella typhimurium C77-31; format: cell-based
Description: as §1

[7] = tested on: Cronobacter sakazakii ATCC29544; format: cell-based
Description: as §1

EA. hy 926 cells = test: Cytotoxicity (CCK-8); format: cell-based, human; details: CCK-8, 24 h; for EA. hy 926 cell viability: peptide concentration 128 μM
Description: The cytotoxicity of the peptides was tested on the EA. hy 926 cell line by using the Cell Counting Kit-8 (CCK-8, Dojindo, Japan) as described in a previous study ([Sánchez-Gómez et al., 2015]). The EA. Hy 926 cells cultured in the logarithmic growth -phase was then diluted with PBS to a single cell suspension. A 100 μL cell suspension (2 × 10^5 cells) was added to 96-well plates and cultured in an incubator with a 5% CO2 atmosphere at 37°C. The cell culture medium was removed, and the two-fold serial dilutions of peptides prepared using DMEM with 5% FBS were added to the 96-well plates. After 24 h, 100 μL DMEM with 10% CCK-8 was added to the 96-well plates and then cultured for 4 h. The absorbance was measured at 492 nm by using a microplate reader. DMEM served as a positive control and cells mixed with DMEM without peptides as a negative control. Melittin was employed as a control peptide.

[8] = tested on: 12 typical food-pathogens; details: over the 12 food-pathogens of Table 3
Description: as §1
The selectivity index (SI), calculated as the ratio of MHC to GM, was used a comparison parameter for the safety and efficacy of peptides.

Escherichia coli UB1005 = format: cell-based
Description: as §1

[9] = tested on: Salmonella typhimurium ATCC14028; format: cell-based
Description: as §1

[10] = tested on: Listeria monocytogenes CMCC54004; format: cell-based
Description: as §1

[11] = tested on: Salmonella enteric-subspenterica CMCC47020; details: 1 × 10^6 CFU/mL, 24 h, 37°C, triplicate
Description: as §1

[12] = tested on: Salmonella enteric-subspenterica CMCC50071; details: 1 × 10^6 CFU/mL, 24 h, 37°C, triplicate
Description: as §1

[13] = Staphylococcus aureus CMCC26074, 1 × 10^6 CFU/mL, 24 h, 37°C, triplicate
[14] = E. coli ATCC25922, peptides treated with trypsin 1 mg/mL, 1 h, 37°C
[15] = Staphylococcus aureus ATCC25923, 1 × 10^6 CFU/mL, 24 h, 37°C, triplicate

Molecule | MIC ([1]; CMCC26074, 24 h) [µM] | MIC, Heat ([2]; ATCC25922, 1 h) [µM] | MIC, Papain ([2]; ATCC25922, 1 h) [µM] | MIC, Pepsin ([2]; ATCC25922, 1 h) [µM] | MIC, Proteinase k ([2]; ATCC25922, 1 h) [µM] | MIC, CaCl2 [2] [µM] | MIC, Control [2] [µM] | MIC, KCl [2] [µM] | MIC, MgCl2 [2] [µM] | MIC, NH4Cl [2] [µM] | MIC, NaCl [2] [µM] | MIC ([3]; ATCC25923, 24 h) [µM] | MIC (Bacillus cereus CMCC6303; CMCC6303, 24 h) [µM] | MIC [4] [µM] | MIC [5] [µM] | MIC ([6]; murium C77-31, 24 h) [µM] | MIC ([7]; ATCC29544, 24 h) [µM] | EA. hy 926 cell viability (EA. hy 926 cells) [%] | GM (geometric mean of MICs) [8] [µM] | MIC ([9]; ATCC14028, 24 h) [µM] | further results
CC[C@H](C)[C@@H]1NC(=O)[C@H](CCCNC(=N)N)NC(=O)[C@@H](NC(=O)[C@H](CC(C)C)NC(=O)[C@@H](N)CCCNC(=N)N)CSSC[C@@H](C(=O)N[C@@H](CCCNC(=N)N)C(N)=O)NC(=O)[C@H](C(C)C)NC(=O)[C@H](CCCNC(=N)N)NC(=O)[C@H]([C@@H](C)CC)NC(=O)[C@H](C(C)C)NC(=O)[C@H](C(C)C)NC1=O [L2C3V10C11, bactenecin] (HELM PEPTIDE1{R.L.C.R.I.V.V.I.R.V.C.R.[am]}$PEPTIDE1,PEPTIDE1,3:R3-11:R3$$$V2.0) | >256 | 8 (≈ 11.9 µg/mL) | 16 (≈ 23.7 µg/mL) | 16 (≈ 23.7 µg/mL) | 32 (≈ 47.5 µg/mL) | 8 (≈ 11.9 µg/mL) | 4 (≈ 5.93 µg/mL) | 4 (≈ 5.93 µg/mL) | 4 (≈ 5.93 µg/mL) | 4 (≈ 5.93 µg/mL) | 16 (≈ 23.7 µg/mL) | >256 | 64 (≈ 94.9 µg/mL) | >256 | 4 (≈ 5.93 µg/mL) | >256 | 256 (≈ 380 µg/mL) |  |  |  | MIC, Trypsin ([2]; ATCC25922, 1 h): 64 µM (≈ 94.9 µg/mL)
RKRRIVVIRRKR-NH2 [K2R3R10K11] |  | 16 | 8 | 32 | 8 | 16 | 8 | 8 | 8 | 8 | 32 |  | 128 |  | 8 |  |  | 85 | 191.8 | 128 | MIC [1, 13]: >256 µM; MIC, Trypsin [2, 14]: >256 µM; MIC [3, 15]: >256 µM; MIC ([4]; Salmonella pullorum C79-13, 1 × 10^6 CFU/mL, 37°C, triplicate): 256 µM; MIC (Escherichia coli UB1005; Escherichia coli UB1005, 1 × 10^6 CFU/mL, 24 h, 37°C, triplicate): 256 µM; MIC ([6]; Salmonella typhimurium C77-31, 1 × 10^6 CFU/mL, 24 h, 37°C, triplicate): >256 µM; MIC ([7]; Cronobacter sakazakii ATCC29544, 1 × 10^6 CFU/mL, 24 h, 37°C, triplicate): >256 µM; MIC ([10]; CMCC54004, 24 h): 32 µM
RKWRIVVIRVRR-NH2 [K2W3V10R11] | 256 | 8 | 2 | 128 | 256 | 8 | 2 | 2 | 4 | 2 | 8 | 128 | 16 | 8 | 2 | 32 | 32 | 80 | 19.0 | 32 | MIC, Trypsin ([2]; ATCC25922, 1 h): >256 µM; MIC [11]: 64 µM; MIC (Escherichia coli UB1005; UB1005, 24 h): 8 µM; MIC [12]: 8 µM; MIC ([10]; CMCC54004, 24 h): 2 µM
RRFRIVVIRWLR-NH2 [R2F3W10L11] | 256 | 32 | 8 | 16 | 128 | 8 | 2 | 8 | 2 | 4 | 16 | 256 | 32 | 32 | 2 | 64 | 32 | 71 | 32.0 | 32 | MIC, Trypsin ([2]; ATCC25922, 1 h): >256 µM; MIC [11]: 64 µM; MIC (Escherichia coli UB1005; UB1005, 24 h): 16 µM; MIC [12]: 8 µM; MIC ([10]; CMCC54004, 24 h): 16 µM
RRWRIVVIRWRR-NH2 [R2W3W10R11] | 128 | 8 | 4 | 32 | 128 | 2 | 2 | 2 | 2 | 2 | 4 | 128 | 64 | 32 | 2 | 64 | 64 | 77 | 30.2 | 64 | MIC, Trypsin [2, 14]: >256 µM; MIC [11]: 256 µM; MIC (Escherichia coli UB1005; UB1005, 24 h): 16 µM; MIC [12]: 8 µM; MIC ([10]; CMCC54004, 24 h): 1 µM
RWKRIVVIRKRR-NH2 [W2K3K10R11] |  | 16 | 4 | 16 | 8 | 4 | 4 | 4 | 4 | 4 | 8 |  |  | 256 | 4 | 256 | 256 | 83 | 170.0 |  | MIC [1, 13]: >256 µM; MIC, Trypsin [2, 14]: >256 µM; MIC [3, 15]: >256 µM; MIC (Bacillus cereus CMCC6303; Bacillus cereus CMCC6303, 1 × 10^6 CFU/mL, 24 h, 37°C, triplicate): 128 µM; MIC (Escherichia coli UB1005; UB1005, 24 h): 256 µM; MIC ([9]; Salmonella typhimurium ATCC14028, 1 × 10^6 CFU/mL, 24 h, 37°C, triplicate): 128 µM; MIC ([10]; Listeria monocytogenes CMCC54004, 1 × 10^6 CFU/mL, 24 h, 37°C, triplicate): 128 µM
melittin [reference compound] |  |  |  |  |  |  |  |  |  |  |  |  |  |  |  |  |  |  |  |  | Cytotoxicity (EA. hy 926 cells; at 16 μM): 100%
